This is an account of results in patent US5079235A, “Antiviral compounds” (Burroughs Wellcome Co., priority 1986, dated 1992).

In data set [1] the test system is Human cytomegalovirus (HCMV). Briefly: Human cytomegalovirus (HCMV) plaque reduction assay in MRC5 or Detroit 532 cells. In kind it is cell-based. The conditions noted are these: for pIC50: Human betaherpesvirus 5, HCMV, MRC5 or Detroit 532 cells, plaque reduction. On the procedure:
Human cytomegalovirus (HCMV) is assayed in monolayers of either MRC5 cells (human embryonic lung) or Detroit 532 cells (human foreskin fibroblasts) in multiwell trays. Activity of compounds is determined in the plaque reduction assay, in which a cell monolayer is infected with a suspension of HCMV, and then overlaid with nutrient agarose in the form of a gel to ensure that there is no spread of virus throughout the culture. A range of concentrations of compound of known molarity was incorporated in the nutrient agarose overlay. Plaque numbers of each concentration are expressed as percentage of the control and a dose-response curve is drawn. From this curve the 50% inhibitory concentration (IC50) is estimated.

Another data set has as its system herpes simplex. Conditions: in vitro; cited from earlier work.
A further data set concerns vaccinia. Conditions: in vitro; cited from earlier work.
Data set [2] is described as follows: Cell toxicity in Vero cell growth inhibition assay (MTT). In kind it is cell-based. Conditions: monkey; Vero cells, 50% inhibition of cell viability (MTT) at 96 hours; read-out: CCID50 at 96 hr. On the procedure: Cell toxicity is assessed in a cell growth inhibition assay. Subconfluent cultures of Vero cells grown on 96-well microtiter dishes are exposed to different dilutions of drug, and cell viability determined daily on replicate cultures using uptake of a tetrazolium dye (MTT). The concentration required for a 50% inhibition of cell viability at 96 hours is termed CCID50.

The test system of data set [3] is Varicella zoster virus (VZV). Put plainly: Varicella zoster virus (VZV) assayed in MRC5 cells, plaque reduction method without agarose overlay. Type of data set: cell-based. Conditions: for pIC50: Human alphaherpesvirus 3, MRC5 cells. (In general: Plaque reduction counts the foci of infection that form in a cell layer.)

pIC50: −log10 of the molar value.

As for `C#Cc1cn([C@H]2C[C@H](O)[C@@H](CO)O2)c(=O)n(C(=O)c2ccccc2)c1=O` [Example 1, 3-N-Benzoyl-2'-deoxy-5-ethynyluridine], in data set [1] (CMV), the “activity against CMV (in words)” value is “high activity against CMV”.
For `C#Cc1cn([C@H]2C[C@H](O)[C@@H](CO)O2)c(=O)[nH]c1=O` [2'-deoxy-5-ethynyluridine], the “antiviral activity against herpes simplex (in words)” value in the data set on herpes simplex is reported as “did not demonstrate any effect of use in human medicinal chemotherapy”. Further, the “antiviral activity against vaccinia (in words)” value with vaccinia is given as “did not demonstrate any effect of use in human medicinal chemotherapy”.
Take `CC#Cc1cn([C@H]2C[C@H](O)[C@@H](CO)O2)c(=O)n(C(=O)c2ccccc2)c1=O` [Example 4, 3-N-Benzoyl-2'-deoxy-5-propynyluridine]: the CC50 at 96 h in data set [2] was > 500 µM. In data set [3], the “anti-VZV activity (in words)” value was “potent anti-VZV activity”. The figures for the pIC50 in data set [3] and in data set [1] were 5.66 and 4.55, respectively.
Taken in the same sequence, the figures for `CC#Cc1cn([C@H]2C[C@H](O)[C@@H](CO)O2)c(=O)nc1N` [Example 2, 2'-Deoxy-5-propynylcytidine] were > 300 µM, “potent anti-VZV activity”, 5.48 and < 4.70.

As a reminder, the pIC50 is the IC50 on a negative log10 scale, so that one unit is a factor of ten.
